Data reported in patent publication US10660789B2, “1,4-dihydropyridine derivatives with HSP modulating activity” (Richter Gedeon NYRT., priority 2011, dated 2020).
Counter-ions that a name gives are not always drawn.

Legend:
[1] = test system: APP mutant transgenic mice; assay: Hippocampal histology after Morris water maze (cresyl violet, tau immunohistochemistry, Golgi staining); assay type: in vivo, mouse
Procedure: After the Morris water maze task the animals were deeply anesthetized, and transcardialy perfused with 10 ml 4° C. phosphate-buffered saline solution (PBS), followed by 30 ml of 4° C. paraformaldehyde solution (4% in phosphate buffer, pH 7.4). The brains were removed and postfixed for 24 h in the same fixative (4° C.) and subsequently cryoprotected in 30% sucrose solution for 72 h (4° C.). Brains were cut on a cryostat in 30 μm hippocampal coronal sections, and the slices were collected and stored at 4° C. in PBS for free floating immunohistochemistry.
Cresyl violet staining (Nissl staining) is used for neuronal tissue; the stain binds to the acidic components of the neuronal cytoplasm, showing the number of functioning neurons. Slides were stained into the filtered 1% crezyl violet solution for 5 min. and were dehydrated in 50% 70%, 95%, 2×100% ethanol for 1 minute each. After that slides were placed in xylene for another 10 minutes, and coversliped.
Neurofibrillary tangles (NTFs) are intraneuronal aggregates; these are abnormal accumulations associated with neurodegenerative diseases. To visualize the presence of these structures, we used for immunostaining human PHF-tau MAb(clone AT100) primer antibody at 1:800 dilution in PBS (pH 7.4).
The methodological steps in all three immunohistological techniques were the same. After quenching of endogenous peroxidase activity and a blocking step, the sections were incubated overnight at 4° C. with the primary antibody in the presence of 20% goat serum and Triton X-100 0.2%. On the following day, the sections were washed in PBS and incubated for 1 h at room temperature with the secondary biotinylated goat anti-mouse antibody (Vector Laboratories, Burlingame, Calif., USA, 1:400). […]
Dendritic spines change their density after a CNS injury, to visualize this effect, we made Golgi staining. […] The slides were analyzed with confocal light microscopy, we counted dendritic spines 100 μm tong on hippocampal pyramidal cells, and start point was 100 μm farther from the stoma. […]

[2] = test system: B6SJL-Tg(SOD1*G93A)1Gur/J mice; assay: Lifespan of G93A ALS mouse strain; assay type: in vivo
Excerpt: Amyotrophic lateral sclerosis (ALS) is a fatal neurodegenerative disease, caused by the death of motor neurons mainly in the spinal cord. The main form of familiar (genetic or inherited) ALS is caused by the mutation of superoxide dismutase 1 (SOD1) gene, which results in […] amyloid-like aggregations and progressive neuronal degenerations. […] The “golden standard” of preclinical ALS drug tests is the use of a specific transgenic mouse strain, which harbors high-copy number of human mutated SOD1 gene, having a mutation of G93A.
The effect of Ex. 23 was investigated on lifespan of G93A ALS mouse strain. A total of 33 transgenic female mice (B6SJL-Tg(SOD1*G93A)1Gur/J) were bred from 4 breeding pairs. The breeding pairs were purchased from the Jackson Laboratory (jax.org). The mice were individually housed in an IVC rack. Standard food pellets and water was available ad libidum. Body weight was monitored daily. The compound Ex. 23 was freshly dissolved in saline every day, and was administered daily intraperitoneally at the onset of symptoms in 10 mg/bwkg. Symptom onset was determined according to ALS-TDI neurological score. Mice treated with Ex. 23 lived longer (FIG. 10) than untreated mice (mean survival 143±3 days; n=8 and 132±3 days; n=25, respectively).

For COC(=O)C1=C(CCN(C)C)N(C)C(CCN(C)C)=C(C(=O)OC)C1c1ccc(C(F)(F)F)cc1 [Example 23, Dimethyl 4-(4-trifuoromethylphenyl)-2,6-bis-(2-dimethylaminoethyl)-1-methyl-1,4-dihydropyridine-3,5-dicarboxylate dihydrochloride], the “Golgi staining, dendritic spine density” value ([1]; hippocampal pyramidal cells) was “the spine density was the highest in the APP mutant compound of Ex. 23 treated group”, the tau-immunohistochemistry ([1]; hippocampus, APP mutant mice) was “could inhibit the taupathology” and the “cresyl-violet staining, alive neurons” value ([1]; hippocampus, versus negative control group) was “more alive neurons”. The mean survival ([2]; 10 mg/bwkg daily i.p. from onset of symptoms, n=8, FIG. 10) was 143 ± 3 days and the In vivo efficacy ([2]; model in which efficacy was shown) was “ALS”.
